Data reported in patent publication US20240415918A1, “Polypeptide and its use as a CCK receptor agonist/antagonist” (Centre for Regenerative Medicine & Health, Hong Kong …, priority 2021, published 2024).
Where a SMILES comes first, the peptide text is derived from it. [ ]: non-standard residue; d: D form. The star is where a group is joined. NMeW = CN[C@@H](Cc1c[nH]c2ccccc12)C(=O)O; Phe(3-Br) = N[C@@H](Cc1cccc(Br)c1)C(=O)O; Fmoc = O=C(OCC1c2ccccc2-c2ccccc21)*; NMeNle = CCCC[C@H](NC)C(=O)O; Nle = CCCC[C@H](N)C(=O)O

Legend:
[1] = molecular target: T1, CCK-B receptors (CHO-CCK) (Homo sapiens, UniProt P32239); assay: Calcium flux (Fluo-8) antagonist test on CHO-CCK model cells in presence of CCK8; type: cell-based
T1 construct: expressed in transfected cells; host or cells: CHO (CHO-CCK model cells)
T1 sequence (P32239 1-447): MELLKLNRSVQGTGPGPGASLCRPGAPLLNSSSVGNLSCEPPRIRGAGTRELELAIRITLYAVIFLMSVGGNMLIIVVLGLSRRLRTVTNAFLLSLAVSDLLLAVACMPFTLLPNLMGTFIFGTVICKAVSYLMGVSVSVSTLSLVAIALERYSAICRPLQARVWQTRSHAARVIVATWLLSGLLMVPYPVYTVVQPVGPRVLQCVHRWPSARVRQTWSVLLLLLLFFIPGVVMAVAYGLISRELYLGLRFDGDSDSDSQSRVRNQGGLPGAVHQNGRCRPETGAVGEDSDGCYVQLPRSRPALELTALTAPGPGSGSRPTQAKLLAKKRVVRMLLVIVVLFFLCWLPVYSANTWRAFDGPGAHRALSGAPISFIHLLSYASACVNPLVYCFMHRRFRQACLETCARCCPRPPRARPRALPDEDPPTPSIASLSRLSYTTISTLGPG
Experimental: The compound was formulated to a 10 mM mother liquor with DMSO, and then diluted into a series of 9 concentrations with a 3-fold gradient to form a 1000× stock solution. […] Prepare 1×Fluo-8 analysis buffer: mix 9 mL of HHBS, 1 mL of 10× Pluronic F127 Plus and 20 μL of Fluo-8 thoroughly for later use. • 3. Add Fluo-8 dye working solution to the cell plate, 100 μL/well. First incubate in a 37° C. incubator for 30 min, and then take it out and incubate at room temperature in the dark for 30 min. • 4. In the process of incubating cells, the compounds to be detected were prepared with HHBS. • 5. […] The agonism/antagonism EC50 of the compound can be obtained by plotting the fitting curve with the agonism/antagonism percentage as Y-axis and the concentration of the compound as X-axis.

[2] = molecular target: T1, CCK-B receptors (CHO-CCK); assay: Calcium flux (Fluo-8) agonist test on CHO-CCK model cells; type: cell-based; details: for EC50: CHO-CCK cells; for Agonistic Activity (%) at 10 μM: compound at 10 μM, percentage of signal of 20 nM CCK8 alone
Method in brief: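 Agonist-mode Fluo-8 calcium flux read on CHO-CCK cells after dye loading 30 min at 37 °C plus 30 min at room temperature.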

[3] = compound together with 10 nM CCK8
[4] = compound alone, 100% = 20 nM CCK8
[5] = compound together with 10 nM CCK8, bound in μM
[6] = Fluo-8 calcium flux, 100% control = 20 nM CCK8

Row | EC50 [1, 3] | EC50 [2, 4] | Compound | further results
1 | 1.99 µM | 2.29 µM | COC(=O)C[C@H](NC(=O)[C@H](CCSC)NC(=O)[C@H](N)Cc1c[nH]c2ccccc12)C(=O)N[C@@H](Cc1cccc(I)c1)C(N)=O [HT-79, D-Trp-Met-Asp(Ome)-Phe(3-I)-NH2] | Agonistic Activity (%) at 10 μM [2]: 38.37%
2 | 0.807 µM | 0.572 µM | COC(=O)C[C@H](NC(=O)[C@H](CCSC)NC(=O)[C@H](N)Cc1c[nH]c2ccccc12)C(=O)N[C@@H](Cc1cccc(Br)c1)C(N)=O [HT-80, D-Trp-Met-Asp(Ome)-Phe(3-Br)-NH2] | Agonistic Activity (%) at 10 μM [2]: 57.83%
3 | 9.98 µM | – | COC(=O)C[C@H](NC(=O)[C@H](CCSC)NC(=O)[C@H](N)Cc1c[nH]c2ccccc12)C(=O)N[C@@H](Cc1ccc(F)cc1)C(N)=O [HT-87, D-Trp-Met-Asp(Ome)-Phe(4-F)-NH2] | Agonistic Activity (%) at 10 μM [2]: 28.73%
4 | 3.62 µM | 3.21 µM | COC(=O)C[C@H](NC(=O)[C@H](CCSC)NC(=O)[C@H](N)Cc1c[nH]c2ccccc12)C(=O)N[C@@H](Cc1cc(Cl)cc(Cl)c1)C(N)=O [HT-89, D-Trp-Met-Asp(Ome)-Phe(3,5-DiCl)-NH2] | Agonistic Activity (%) at 10 μM [2]: 44.86%
5 | 5.91 µM | 9.3 µM | COC(=O)C[C@H](NC(=O)[C@H](CCSC)NC(=O)[C@H](N)Cc1c[nH]c2ccccc12)C(=O)N[C@@H](Cc1cc(F)cc(F)c1)C(N)=O [HT-90, D-Trp-Met-Asp(Ome)-Phe(3,5-DiF)-NH2] | Agonistic Activity (%) at 10 μM [2]: 59.76%
6 | – | 1.63 µM | CCCC[C@@H](C(=O)N[C@@H](CC(=O)O)C(=O)N[C@@H](Cc1cccc(Br)c1)C(N)=O)N(C)C(=O)[C@@H](Cc1c[nH]c2ccccc12)NC(C)=O [HT-179, Ac-D-Trp-(N-Me-Nle)-Asp-Phe(3-Br)-NH2] (Ac-[dW][NMeNle]D[Phe(3-Br)]-NH2) | EC50 [1, 5]: > 10 µM
7 | 3.56 µM | 0.447 µM | CSCC[C@H](NC(=O)[C@@H](Cc1ccccc1)NC(C)=O)C(=O)N[C@@H](CC(=O)O)C(=O)N[C@@H](Cc1cccc(Br)c1)C(N)=O [HT-180, Ac-D-Phe-Met-Asp-Phe(3-Br)-NH2] (Ac-[dF]MD[Phe(3-Br)]-NH2) | –
8 | – | 3.9 µM | CSCC[C@H](NC(=O)[C@@H](Cc1cc[nH]c1)NC(C)=O)C(=O)N[C@@H](CC(=O)O)C(=O)N[C@@H](Cc1cccc(Br)c1)C(N)=O [HT-181, Ac-D-His-Met-Asp-Phe(3-Br)-NH2] | EC50 [1, 5]: > 10 µM
9 | 3.3 µM | 0.421 µM | CSCC[C@H](NC(=O)[C@@H](Cc1ccc(O)cc1)NC(C)=O)C(=O)N[C@@H](CC(=O)O)C(=O)N[C@@H](Cc1cccc(Br)c1)C(N)=O [HT-182, Ac-D-Tyr-Met-Asp-Phe(3-Br)-NH2] (Ac-[dY]MD[Phe(3-Br)]-NH2) | –
10 | 9.41 µM | 4.46 µM | CSCC[C@H](NC(=O)[C@@H](CC(C)C)NC(C)=O)C(=O)N[C@@H](CC(=O)O)C(=O)N[C@@H](Cc1cccc(Br)c1)C(N)=O [HT-183, Ac-D-Leu-Met-Asp-Phe(3-Br)-NH2] (Ac-[dL]MD[Phe(3-Br)]-NH2) | –
11 | 4.41 µM | 4.32 µM | CC(=O)N[C@H](Cc1c[nH]c2ccccc12)C(=O)N[C@@H](CCC(N)=O)C(=O)N[C@@H](CC(=O)O)C(=O)N[C@@H](Cc1cccc(Br)c1)C(N)=O [HT-184, Ac-D-Trp-Glu-Asp-Phe(3-Br)-NH2] | –
12 | 12 µM | 3.82 µM | CC(=O)N[C@H](Cc1c[nH]c2ccccc12)C(=O)N[C@@H](CCC(N)=O)C(=O)N[C@@H](CC(=O)O)C(=O)N[C@@H](Cc1cccc(Br)c1)C(N)=O [HT-185, Ac-D-Trp-Gln-Asp-Phe(3-Br)-NH2] | –
13 | 7.71 µM | 1.34 µM | CSCC[C@H](NC(=O)[C@@H](Cc1c[nH]c2ccccc12)NC(C)=O)C(=O)N[C@@H](CCC(=O)O)C(=O)N[C@@H](Cc1cccc(Br)c1)C(N)=O [HT-186, Ac-D-Trp-Met-Glu-Phe(3-Br)-NH2] (Ac-[dW]ME[Phe(3-Br)]-NH2) | –
14 | – | – | CSCC[C@H](NC(=O)[C@@H](Cc1c[nH]c2ccccc12)NC(C)=O)C(=O)N[C@@H](CC(N)=O)C(=O)N[C@@H](Cc1cccc(Br)c1)C(N)=O [HT-187, Ac-D-Trp-Met-Asn-Phe(3-Br)-NH2] (Ac-[dW]MN[Phe(3-Br)]-NH2) | EC50 [1, 5]: > 10 µM; EC50 ([2]; compound alone, bound in μM): > 10 µM
15 | 7.55 µM | 1.84 µM | CSCC[C@H](NC(=O)[C@@H](Cc1c[nH]c2ccccc12)NC(C)=O)C(=O)N[C@@H](CCCCN)C(=O)N[C@@H](Cc1cccc(Br)c1)C(N)=O [HT-188, Ac-D-Trp-Met-Lys-Phe(3-Br)-NH2] (Ac-[dW]MK[Phe(3-Br)]-NH2) | –
16 | 5.95 µM | 1.99 µM | CSCC[C@H](NC(=O)[C@@H](Cc1c[nH]c2ccccc12)NC(C)=O)C(=O)N[C@@H](Cc1c[nH]cn1)C(=O)N[C@@H](Cc1cccc(Br)c1)C(N)=O [HT-189, Ac-D-Trp-Met-His-Phe(3-Br)-NH2] (Ac-[dW]MH[Phe(3-Br)]-NH2) | –
17 | 6.16 µM | 4.75 µM | CSCC[C@H](NC(=O)[C@@H](Cc1c[nH]c2ccccc12)NC(C)=O)C(=O)N[C@@H](CC(C)C)C(=O)N[C@@H](Cc1cccc(Br)c1)C(N)=O [HT-190, Ac-D-Trp-Met-Leu-Phe(3-Br)-NH2] (Ac-[dW]ML[Phe(3-Br)]-NH2) | –
18 | – | – | CSCC[C@H](NC(=O)[C@H](Cc1c[nH]c2ccccc12)NC(C)=O)C(=O)N[C@@H](CC(=O)O)C(=O)N[C@@H](Cc1c[nH]cn1)C(N)=O [HT-191, Ac-Trp-Met-Asp-His-NH2] (Ac-WMDH-NH2) | EC50 [1, 5]: > 10 µM; EC50 ([2]; compound alone, bound in μM): > 10 µM
19 | 8.76 µM | – | CSCC[C@H](NC(=O)[C@H](Cc1c[nH]c2ccccc12)NC(C)=O)C(=O)N[C@@H](CC(=O)O)C(=O)N[C@@H](CC(C)C)C(N)=O [HT-192, Ac-Trp-Met-Asp-Leu-NH2] (Ac-WMDL-NH2) | EC50 ([2]; compound alone, bound in μM): > 10 µM
20 | 0.057 µM | 0.000814 µM | CSCC[C@H](NC(=O)[C@H](Cc1c[nH]c2ccccc12)NC(C)=O)C(=O)N[C@@H](CC(=O)O)C(=O)N[C@@H](Cc1c[nH]c2ccccc12)C(N)=O [HT-193, Ac-Trp-Met-Asp-Trp-NH2] (Ac-WMDW-NH2) | –
21 | 2.22 µM | – | CSCC[C@H](NC(=O)[C@H](Cc1c[nH]c2ccccc12)NC(C)=O)C(=O)N[C@@H](CC(=O)O)C(=O)N[C@@H](CCCCN)C(N)=O [HT-194, Ac-Trp-Met-Asp-Lys-NH2] (Ac-WMDK-NH2) | EC50 ([2]; compound alone, bound in μM): > 10 µM
22 | 2.2 µM | – | CSCC[C@H](NC(=O)[C@H](Cc1c[nH]c2ccccc12)NC(C)=O)C(=O)N[C@@H](CC(=O)O)C(=O)N[C@@H](CCCNC(=N)N)C(N)=O [HT-195, Ac-Trp-Met-Asp-Arg-NH2] (Ac-WMDR-NH2) | EC50 ([2]; compound alone, bound in μM): > 10 µM
23 | – | – | CSCC[C@H](NC(=O)[C@H](Cc1c[nH]c2ccccc12)NC(C)=O)C(=O)N[C@@H](CC(=O)O)C(=O)N[C@@H](CCC(=O)O)C(N)=O [HT-196, Ac-Trp-Met-Asp-Glu-NH2] | EC50 ([1]; in presence of 10 nM CCK8, bound in μM): > 10 µM; EC50 ([2]; Fluo-8 calcium flux, bound in μM): > 10 µM
24 | – | – | CCCC[C@H](NC(=O)[C@H](Cc1c[nH]c2ccccc12)NC(=O)OCC1c2ccccc2-c2ccccc21)C(=O)N[C@@H](CC(=O)O)C(=O)N[C@@H](Cc1cccc(Br)c1)C(N)=O [HT-198, Fmoc-Trp-Nle-Asp-Phe(3-Br)-NH2] (Fmoc-W[Nle]D[Phe(3-Br)]-NH2) | EC50 ([1]; in presence of 10 nM CCK8): 0.908 µM; EC50 [2, 6]: 0.205 µM
25 | – | – | CCCC[C@@H](C(=O)N[C@@H](CC(=O)O)C(=O)N[C@@H](Cc1cccc(Br)c1)C(N)=O)N(C)C(=O)[C@H](Cc1c[nH]c2ccccc12)N(C)C(=O)OCC1c2ccccc2-c2ccccc21 [HT-200, Fmoc-(N-Me-Trp)-(N-Me-Nle)-Asp-Phe(3-Br)-NH2] (Fmoc-[NMeW][NMeNle]D[Phe(3-Br)]-NH2) | EC50 ([1]; in presence of 10 nM CCK8): 1.77 µM; EC50 [2, 6]: 0.616 µM
